# Laboratory results from the Kinase Knowledgebase extract (Sharma et al. 2016).
# Target: MAPK14 (UniProt Q16539)
# Test: Inhibition of MAPK Kinase Activity
# Conditions: not given
# MAPK14, sequence (Q16539 whole entry, looked up): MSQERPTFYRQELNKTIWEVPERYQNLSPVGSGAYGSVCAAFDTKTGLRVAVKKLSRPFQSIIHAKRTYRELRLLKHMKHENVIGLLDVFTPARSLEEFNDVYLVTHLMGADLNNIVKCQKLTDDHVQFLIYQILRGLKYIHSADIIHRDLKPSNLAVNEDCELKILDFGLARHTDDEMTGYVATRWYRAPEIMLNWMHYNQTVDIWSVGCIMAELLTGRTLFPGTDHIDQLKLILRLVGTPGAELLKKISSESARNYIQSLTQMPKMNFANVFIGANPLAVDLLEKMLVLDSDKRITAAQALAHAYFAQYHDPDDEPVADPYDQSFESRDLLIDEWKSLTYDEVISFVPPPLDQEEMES
row,SMILES,IC50 [nM]
1,CN(C)CCNc1cncc(-c2cncc(Nc3cccc(Cl)c3)n2)c1,> 10000
2,Clc1cccc(Nc2cncc(-c3cncc(NCCCn4cncn4)c3)n2)c1,> 10000
3,OCCCCNc1cncc(-c2cncc(Nc3cccc(Cl)c3)n2)c1,> 10000
4,OCCCNc1cncc(-c2cncc(Nc3cccc(Cl)c3)n2)c1,> 10000
5,Clc1cccc(Nc2cncc(-c3cncc(NCCCn4cccn4)c3)n2)c1,> 10000
6,N[C@H](COc1cncc(-c2ccc3[nH]ncc3c2)c1)Cc1c[nH]c2ccccc12,12200
7,N[C@H](COc1cncc(-c2cc3cn[nH]c3cn2)c1)Cc1c[nH]c2ccccc12,750
8,Clc1cccc(Nc2cncc(-c3cncc(NCCCc4cccnc4)c3)n2)c1,> 10000

# Target: PIK3CB (Human) (UniProt P42338)
# Test: Cell-Based Assay
# Conditions: mda-468
# PIK3CB (Human), sequence (P42338 whole entry, looked up): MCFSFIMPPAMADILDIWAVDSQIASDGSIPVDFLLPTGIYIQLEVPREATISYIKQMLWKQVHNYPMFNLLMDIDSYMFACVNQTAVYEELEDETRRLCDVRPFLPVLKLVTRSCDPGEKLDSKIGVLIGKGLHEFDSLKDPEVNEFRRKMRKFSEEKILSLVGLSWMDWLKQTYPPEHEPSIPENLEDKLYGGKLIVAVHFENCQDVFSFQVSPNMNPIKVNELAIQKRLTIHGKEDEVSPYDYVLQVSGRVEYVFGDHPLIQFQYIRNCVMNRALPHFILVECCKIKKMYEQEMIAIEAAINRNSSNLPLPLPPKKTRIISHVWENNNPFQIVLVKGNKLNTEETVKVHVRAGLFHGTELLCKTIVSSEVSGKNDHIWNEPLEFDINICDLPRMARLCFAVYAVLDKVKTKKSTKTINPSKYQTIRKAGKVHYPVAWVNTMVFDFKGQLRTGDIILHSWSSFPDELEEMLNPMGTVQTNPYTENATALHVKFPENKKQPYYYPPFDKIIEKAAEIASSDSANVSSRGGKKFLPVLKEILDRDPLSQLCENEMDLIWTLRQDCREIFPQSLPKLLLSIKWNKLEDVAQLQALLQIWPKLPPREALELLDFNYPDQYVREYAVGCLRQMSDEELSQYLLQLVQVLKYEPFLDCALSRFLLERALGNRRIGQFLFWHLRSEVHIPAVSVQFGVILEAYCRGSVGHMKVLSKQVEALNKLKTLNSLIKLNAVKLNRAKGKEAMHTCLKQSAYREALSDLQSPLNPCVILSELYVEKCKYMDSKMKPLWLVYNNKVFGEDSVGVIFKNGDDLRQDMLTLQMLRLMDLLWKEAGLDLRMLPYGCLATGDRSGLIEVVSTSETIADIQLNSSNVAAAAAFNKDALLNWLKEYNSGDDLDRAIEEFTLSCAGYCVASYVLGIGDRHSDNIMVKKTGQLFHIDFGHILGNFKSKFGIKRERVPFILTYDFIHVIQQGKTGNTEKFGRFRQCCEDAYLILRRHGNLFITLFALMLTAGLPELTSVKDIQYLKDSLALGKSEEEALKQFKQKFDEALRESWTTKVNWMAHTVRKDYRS
row,SMILES,IC50 [nM]
1,C[C@H](Nc1ncnc(N)c1C#N)c1nc2cccc(C#N)c2nc1-c1ccccc1S(C)(=O)=O,> 10000
2,C[C@H](Nc1ncnc(N)c1C#N)c1cc2ccc(F)cc2nc1-c1cccc(F)c1,3800
3,C[C@H](Nc1ncnc(N)c1C#N)c1nc2ccc(F)cc2nc1-c1ccccn1,> 10000
4,C[C@H](Nc1ncnc(N)c1C#N)c1cc2cccc(F)c2nc1-c1ccccc1S(C)(=O)=O,5970
5,C[C@H](Nc1ncnc(N)c1C#N)c1cc2ccc(F)cc2nc1-c1ccccc1S(C)(=O)=O,> 10000
6,C[C@H](Nc1ncnc(N)c1C#N)c1nc2cccc(Cl)c2nc1-c1ccccc1S(C)(=O)=O,> 10000
7,C[C@H](Nc1ncnc(N)c1C#N)c1cc2ccc(F)cc2nc1-c1ccccn1,1950

# Same assay, conditions: mda-mb-468
row,SMILES,IC50 [nM]
1,C[C@H](Nc1ncnc(N)c1C#N)c1nc2cccc(Cl)c2nc1-c1ccccc1S(C)(=O)=O,> 10000

# Target: EGFR (human) (UniProt P00533)
# Test: not given
# Conditions: not given
# EGFR (human), sequence (P00533 whole entry, looked up): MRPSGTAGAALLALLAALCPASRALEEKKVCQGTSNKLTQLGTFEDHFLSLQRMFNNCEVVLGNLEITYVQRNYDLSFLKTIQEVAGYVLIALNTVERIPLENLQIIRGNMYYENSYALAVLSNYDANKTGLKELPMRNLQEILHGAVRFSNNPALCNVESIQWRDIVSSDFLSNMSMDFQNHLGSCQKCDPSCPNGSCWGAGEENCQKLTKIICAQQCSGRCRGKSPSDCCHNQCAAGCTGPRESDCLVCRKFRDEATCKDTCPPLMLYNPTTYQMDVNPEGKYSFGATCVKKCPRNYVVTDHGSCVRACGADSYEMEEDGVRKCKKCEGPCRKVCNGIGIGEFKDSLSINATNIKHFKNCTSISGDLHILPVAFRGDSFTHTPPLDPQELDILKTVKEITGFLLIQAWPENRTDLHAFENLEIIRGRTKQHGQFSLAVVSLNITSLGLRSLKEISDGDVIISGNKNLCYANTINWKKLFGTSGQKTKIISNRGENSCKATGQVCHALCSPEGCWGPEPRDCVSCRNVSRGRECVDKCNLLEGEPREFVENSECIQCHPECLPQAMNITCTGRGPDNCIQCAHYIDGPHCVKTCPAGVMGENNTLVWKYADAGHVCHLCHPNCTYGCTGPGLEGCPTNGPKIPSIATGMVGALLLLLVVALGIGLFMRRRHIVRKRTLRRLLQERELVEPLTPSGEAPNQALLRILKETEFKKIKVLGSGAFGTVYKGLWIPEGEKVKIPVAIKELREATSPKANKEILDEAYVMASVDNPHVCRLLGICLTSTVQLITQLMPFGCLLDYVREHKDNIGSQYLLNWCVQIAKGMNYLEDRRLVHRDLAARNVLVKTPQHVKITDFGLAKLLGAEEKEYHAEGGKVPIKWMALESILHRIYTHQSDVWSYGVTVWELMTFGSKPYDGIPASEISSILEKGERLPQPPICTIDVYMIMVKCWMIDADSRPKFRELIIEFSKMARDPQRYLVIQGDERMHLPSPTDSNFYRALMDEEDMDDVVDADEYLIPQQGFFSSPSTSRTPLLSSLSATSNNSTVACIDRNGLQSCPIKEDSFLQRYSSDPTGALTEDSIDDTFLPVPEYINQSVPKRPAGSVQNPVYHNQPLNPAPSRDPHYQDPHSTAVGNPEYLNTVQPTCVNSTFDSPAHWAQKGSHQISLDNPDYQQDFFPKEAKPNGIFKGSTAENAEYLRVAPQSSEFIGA
row,SMILES,IC50 [nM]
1,O=C(Nc1ccc(CN2CCOCC2)cc1)c1sc2ncnc3c2c1NC(=O)N3c1ccc(F)cc1Cl,23
2,N#Cc1ccc(NC(=O)c2sc3ncnc4c3c2NC(=O)N4c2ccc(F)c(Cl)c2)cn1,116
3,O=C(O)c1sc2ncnc3c2c1NC(=O)N3c1ccc(F)c(Cl)c1,1700
4,C[C@@H]1CN(Cc2ccc(NC(=O)c3sc4ncnc5c4c3NC(=O)N5c3ccc(Oc4ccccc4)cc3)cc2)C[C@H](C)O1,31
5,CC(C)(C)OC(=O)NCCCNC(=O)c1sc2ncnc3c2c1NC(=O)N3c1ccc2c(ccn2Cc2cccc(F)c2)c1,346
6,O=C(Nc1ccc(CN2CCCCC2)cc1)c1sc2ncnc3c2c1NC(=O)N3c1ccc(Cc2ccccc2)cc1,110
7,O=C(Nc1ccc(CNC[C@@H]2CCCO2)cc1)c1sc2ncnc3c2c1NC(=O)N3c1ccc(F)c(Cl)c1,44
8,CC(C)(C)OC(=O)N1CCC(Cc2ccc(NC(=O)c3sc4ncnc5c4c3NC(=O)N5c3ccc4c(ccn4Cc4cccc(F)c4)c3)cc2)CC1,168

# Target: EGFR (human) (UniProt P00533)
# Test: not given
# Conditions: not given
# Remark: another data set of the same source
row,SMILES,IC50 [nM]
1,CCN(CC)CCNC(=O)/C(=C1/C(=O)Nc2ccccc21)c1[nH]c(C)cc1C,> 100000
2,Cc1cc(C)c(/C(C(=O)O)=C2\C(=O)Nc3ccccc32)[nH]1,> 100000
3,O=C(O)/C(=C1/C(=O)Nc2ccccc21)c1ccccc1,> 100000
4,Cc1cc(C)c(/C(C(=O)Nc2cccc(F)c2)=C2\C(=O)Nc3ccccc32)[nH]1,> 100000
5,CCN(CC)Cc1cc(NC(=O)/C(=C2/C(=O)Nc3ccccc32)c2[nH]c(C)cc2C)ccc1O,> 100000
6,Cc1cc(C)c(/C(C(=O)Nc2cccc(N(C)C)c2)=C2\C(=O)Nc3ccccc32)[nH]1,> 100000
7,Cc1cc(C)c(/C(C(=O)Nc2ccccc2Cl)=C2\C(=O)Nc3ccccc32)[nH]1,> 100000
8,Cc1cc(C)c(/C(C(=O)Nc2ccc(F)c(Cl)c2)=C2\C(=O)Nc3ccccc32)[nH]1,> 100000

# Target: EGFR (human) (UniProt P00533)
# Test: not given
# Conditions: not given
# Remark: another data set of the same source
row,SMILES,IC50 [nM]
1,CCNc1nc(-c2cccc(OC)c2)c(-c2ccnc(Nc3ccc(OCCN4CCCC4)c(F)c3)n2)s1,< 100
2,CCNc1nc(-c2cccc(O)c2)c(-c2ccnc(Nc3ccc(OCCN4CCCC4)c(Cl)c3)n2)s1,< 100
3,CCNc1nc(-c2cccc(OC)c2)c(-c2ccnc(Nc3ccc(OC4CCN(CCS(C)(=O)=O)CC4)c(F)c3)n2)s1,100 to 1000
4,Fc1cc(Nc2nccc(-c3sc(N4CCCC4)nc3-c3cccc(Cl)c3)n2)ccc1OCCN1CCCC1,100 to 1000
5,CCNc1nc(-c2cccc(Cl)c2)c(-c2ccnc(Nc3ccc(OCCN(C)C)c(Cl)c3)n2)s1,< 100
6,CCNc1nc(-c2cccc(OC)c2)c(-c2ccnc(Nc3ccc(OCCN(C)C)c(C)c3)n2)s1,< 100
7,COCCNc1nc(-c2cccc(OC)c2)c(-c2ccnc(Nc3ccc(N4CCOCC4)c(Cl)c3)n2)s1,< 100
8,COc1cc(-c2nc(N3CCCC3)sc2-c2ccnc(Nc3ccc(OCCN4CCCC4)c(F)c3)n2)ccc1Cl,100 to 1000

# Target: EGFR (human) (UniProt P00533)
# Test: not given
# Conditions: a431
row,SMILES,IC50 [nM]
1,C=CC(=O)N1CCC[C@H](C(=O)Nc2ccc3ncnc(Nc4ccc(OCc5ccccn5)c(Cl)c4)c3c2)C1,286
2,C=CC(=O)N1CCC[C@@H]1C(=O)Nc1ccc2ncnc(Nc3ccc(OCc4ccccn4)c(Cl)c3)c2c1,567
3,C=CC(=O)N1CCC[C@H]1C(=O)Nc1ccc2ncnc(Nc3ccc(OCc4ccccn4)c(Cl)c3)c2c1,32
4,C=CC(=O)N1CC[C@H](C(=O)Nc2ccc3ncnc(Nc4ccc(OCc5ccccn5)c(Cl)c4)c3c2)C1,350
5,C=CC(=O)N1CCCC[C@H]1C(=O)Nc1ccc2ncnc(Nc3ccc(OCc4ccccn4)c(Cl)c3)c2c1,105
6,C=CC(=O)N1CC[C@H]1C(=O)Nc1ccc2ncnc(Nc3ccc(OCc4ccccn4)c(Cl)c3)c2c1,218
7,C=CC(=O)N1CCC(C(=O)Nc2ccc3ncnc(Nc4ccc(OCc5ccccn5)c(Cl)c4)c3c2)CC1,513
